The values that follow come from publication PMC10281575, “PfCRT mutations conferring piperaquine resistance in falciparum malaria shape the kinetics of quinoline drug binding and transport” (PLOS Pathogens, 2023).

By Km is commonly meant the substrate concentration at which the rate is half of its maximum.

In experiment [1] the test system is water-injected oocytes. The experiment is described as follows: Radiolabeled drug uptake in water-injected control oocytes (intrinsic drug accumulation). The format is cell-based, Xenopus laevis. Conditions: pH 6.0, one value per biological replicate. As to the method: (§1) Adult female X. laevis frogs (purchased from NASCO) were anesthetized by submersion in a solution of 0.3% (w/v) 3-amino benzoate methanesulfonate for 15 min. Sections of the ovary were surgically removed and placed in Ca^2+-free ND96 buffer supplemented with 0.1% collagenase D (w/v; Roche), 0.5% BSA (w/v) and 9 mM Na2HPO4 at 18°C for 14–16 h while gently shaking. The oocytes were then washed several times with ND96 buffer (5 mM HEPES, pH 7.5, 96 mM NaCl, 2 mM KCl, 1.8 mM CaCl2, 1 mM MgCl2), supplemented with […] gentamycin. Healthy-looking stage V-VI oocytes were manually selected and randomly grouped for injection. A codon-optimized coding sequence of PfCRT was subcloned into the pSP64T expression vector and subsequently linearized using the restriction endonuclease BamHI or SalI (New England Biolabs GmbH). RNA for injection was transcribed in vitro using the mMESSAGE mMACHINE SP6 Transcription kit (Ambion), diluted with nuclease-free water to a final concentration of 0.6 μg/μL and stored at -80°C. RNA was injected using precision-bore glass capillary tubes (3.5-inch glass capillaries; Drummond Scientific Co.), which were pulled on a vertical puller (P-87 Flaming/Brown micropipette puller, Sutter Instrument Co.) and graduated. The micropipettes were connected to a microinjector (Nanoject II Auto-Nanoliter Injector, Drummond Scientific Co.). Injection was conducted under stereomicroscopic control. 50 nL of nuclease-free water alone (control oocytes) or 50 nL of nuclease-free water containing 30 ng of RNA was injected per oocyte. Injected oocytes were kept for 72 h at 18°C in ND96 buffer with two daily buffer changes before being used for further experiments.
(§2) Drug transport assays were performed as previously described. Briefly, measurements of radiolabeled drug uptake were made over 1 h, unless otherwise specified. […] Where specified, one or more unlabeled drugs were also present at the indicated concentrations. […] The uptake assays were terminated by removing the oocytes from the reaction medium and washing them three times with 2 mL of ice-cold ND96 buffer. Each oocyte was transferred to a separate scintillation vial and lysed by the addition of 200 μL of a 5% SDS solution. The radioactivity in the sample was measured using a liquid scintillation analyser Tri-Carb 4910 TR (PerkinElmer). Water-injected oocytes were analyzed in parallel as a negative control. The buffer from each condition was measured in duplicate in parallel to each experiment to transform counts per minute into pmol of drug. Drug uptake attributable to PfCRT was determined by subtracting the background uptake from water-injected oocytes from that of PfCRT-expressing oocytes. In all cases, at least three independent experiments were performed on oocytes from different frogs, and for each condition in an experiment, measurements were made from 10 oocytes per treatment.

In experiment [2] the target is T1, PfCRT^Dd2_H97Y (Plasmodium falciparum, UniProt Q8IBZ9, A220S/H97Y/I356T/K76T/M74I/N326S/N75E/Q271E/R371I).
T1 construct: expressed in transfected cells; host or cells: Xenopus laevis oocytes injected with in vitro transcribed RNA (pSP64T)
T1 sequence (Q8IBZ9 1-424 M74I/N75E/K76T/H97Y/A220S/Q271E/N326S/I356T/R371I): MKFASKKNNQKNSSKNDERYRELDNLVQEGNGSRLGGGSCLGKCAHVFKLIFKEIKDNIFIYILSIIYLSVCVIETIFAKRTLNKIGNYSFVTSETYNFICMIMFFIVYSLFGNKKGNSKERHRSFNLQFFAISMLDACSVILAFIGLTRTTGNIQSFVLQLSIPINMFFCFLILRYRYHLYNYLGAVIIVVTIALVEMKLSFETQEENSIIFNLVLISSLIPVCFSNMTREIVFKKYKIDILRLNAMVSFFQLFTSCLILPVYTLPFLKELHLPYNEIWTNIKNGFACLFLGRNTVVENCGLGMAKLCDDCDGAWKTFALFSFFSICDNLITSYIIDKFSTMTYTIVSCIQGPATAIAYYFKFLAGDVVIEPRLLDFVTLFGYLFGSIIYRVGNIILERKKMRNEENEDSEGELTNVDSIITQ
The experiment is described as follows: Radiolabeled drug uptake in X. laevis oocytes expressing PfCRT^Dd2_H97Y. The format is cell-based. Particulars: for Vmax, maximal velocity of drug transport / Km: Michaelis-Menten fit, 10-500 μM drug, pH 6; for Km: read-out: KM, Michaelis constant.
Description: A codon-optimized coding sequence of the Dd2 isoform of PfCRT (PfCRT^Dd2) was subcloned into the pSP64T expression vector [21]. To generate the necessary mutations to introduce the amino acid substitutions H97Y, F145I, M343L or G353V into the pfcrt sequence, the overlap extension method was used. A region from the 5’-untranslated Xenopus β-globin sequence to the respective 3’ region, containing the full length pfcrt coding sequence, was amplified using the following primer pairs: for the H97Y mutation, numbers 1/4 and 2/3; for the F145I mutation, numbers 1/6 and 2/5; for the M343L mutation, numbers 1/8 and 2/7; and for the G353V mutation, numbers 1/10 and 2/9 (for primers, see S2 Table). Both PCR products were used as template for amplification of the final product using primers number 1/2. The resulting fragment was cloned into the pSP64T expression vector, and the presence of the desired mutation was confirmed by sequencing.
as §1, §2

Molecules are shown by their SMILES. Where “and” joins values, the source holds several entries; their conditions need not be identical. Identical values can stand only once.

Take `CCN(CC)CCCC(C)Nc1ccnc2cc(Cl)ccc12` (centres unmarked) [CQ, chloroquine]: in experiment [1] (50 μM CQ), the “water-injected uptake of CQ at 10 min” value is 3.00 pmol oocyte-1 and 2.99 pmol oocyte-1 and 4.09 pmol oocyte-1 and 3.71 pmol oocyte-1 and 0.95 pmol oocyte-1 and 4.05 pmol oocyte-1 and 0.39 pmol oocyte-1 and 2.80 pmol oocyte-1 and 2.76 pmol oocyte-1; the “water-injected uptake of CQ at 30 min” value was 5.48 pmol oocyte-1 and 5.44 pmol oocyte-1 and 5.22 pmol oocyte-1 and 9.34 pmol oocyte-1 and 5.41 pmol oocyte-1 and 1.36 pmol oocyte-1 and 4.88 pmol oocyte-1 and 5.49 pmol oocyte-1 and 4.65 pmol oocyte-1; the “water-injected uptake of CQ at 60 min” value is 10.84 pmol oocyte-1 and 8.71 pmol oocyte-1 and 14.37 pmol oocyte-1 and 7.57 pmol oocyte-1 and 2.74 pmol oocyte-1 and 9.73 pmol oocyte-1 and 10.77 pmol oocyte-1 and 12.13 pmol oocyte-1 and 9.43 pmol oocyte-1; the “water-injected uptake of CQ at 90 min” value was 10.67 pmol oocyte-1 and 8.60 pmol oocyte-1 and 15.53 pmol oocyte-1 and 9.13 pmol oocyte-1 and 10.08 pmol oocyte-1 and 13.10 pmol oocyte-1 and 8.74 pmol oocyte-1. Moreover, in experiment [1] (50 μM CQ), the “water-injected uptake of CQ at 120 min” value was 15.57 pmol oocyte-1 and 11.64 pmol oocyte-1 and 20.59 pmol oocyte-1 and 11.40 pmol oocyte-1 and 13.60 pmol oocyte-1 and 13.51 pmol oocyte-1 and 14.13 pmol oocyte-1 and 14.32 pmol oocyte-1; the “water-injected uptake of CQ at 180 min” value is 15.62 pmol oocyte-1 and 20.71 pmol oocyte-1 and 19.14 pmol oocyte-1 and 17.36 pmol oocyte-1 and 14.82 pmol oocyte-1 and 15.40 pmol oocyte-1 and 19.29 pmol oocyte-1. For the same compound, the “PfCRTDd2_H97Y-mediated CQ uptake at 10 µM CQ” value in experiment [2] (10 µM CQ, single replicates) is 0.94 pmol oocyte-1 h-1 and 1.60 pmol oocyte-1 h-1 and 1.36 pmol oocyte-1 h-1. Besides, the “PfCRTDd2_H97Y-mediated CQ uptake at 50 µM CQ” value in experiment [2] (50 µM CQ, single replicates) is 8.24 pmol oocyte-1 h-1 and 3.56 pmol oocyte-1 h-1 and 5.41 pmol oocyte-1 h-1 and 4.92 pmol oocyte-1 h-1 and 5.15 pmol oocyte-1 h-1. In addition, in experiment [2] (100 µM CQ, single replicates), the “PfCRTDd2_H97Y-mediated CQ uptake at 100 µM CQ” value is 9.39 pmol oocyte-1 h-1 and 7.90 pmol oocyte-1 h-1 and 6.68 pmol oocyte-1 h-1. Also, the “PfCRTDd2_H97Y-mediated CQ uptake at 300 µM CQ” value in experiment [2] (300 µM CQ, single replicates) was 13.78 pmol oocyte-1 h-1 and 16.15 pmol oocyte-1 h-1 and 14.38 pmol oocyte-1 h-1. For the same compound, the “PfCRTDd2_H97Y-mediated CQ uptake at 500 µM CQ” value in experiment [2] (500 µM CQ, single replicates) was 17.49 pmol oocyte-1 h-1 and 19.24 pmol oocyte-1 h-1 and 15.35 pmol oocyte-1 h-1. Further, in experiment [2], the “Vmax, maximal velocity of drug transport” value worked out at 24 ± 1 pmol oocyte^-1 h^-1 and the Michaelis constant (Km) was 184 ± 16 µM.

Regarding `Clc1ccc2c(N3CCN(CCCN4CCN(c5ccnc6cc(Cl)ccc56)CC4)CC3)ccnc2c1` [PPQ, piperaquine], in experiment [1] (50 μM PPQ), the “water-injected PPQ uptake at 10 min” value was 41.08 pmol oocyte-1 and 24.73 pmol oocyte-1 and 20.03 pmol oocyte-1 and 11.15 pmol oocyte-1 and 47.19 pmol oocyte-1 and 42.00 pmol oocyte-1 and 43.00 pmol oocyte-1 and 24.03 pmol oocyte-1 and 24.68 pmol oocyte-1; the “water-injected PPQ uptake at 30 min” value is 39.93 pmol oocyte-1 and 81.64 pmol oocyte-1 and 110.61 pmol oocyte-1 and 36.25 pmol oocyte-1 and 63.03 pmol oocyte-1 and 70.49 pmol oocyte-1 and 61.47 pmol oocyte-1; the “water-injected PPQ uptake at 60 min” value was 160.55 pmol oocyte-1 and 290.10 pmol oocyte-1 and 103.17 pmol oocyte-1 and 89.81 pmol oocyte-1 and 146.11 pmol oocyte-1 and 119.20 pmol oocyte-1 and 106.15 pmol oocyte-1 and 92.97 pmol oocyte-1 and 66.51 pmol oocyte-1 and 37.81 pmol oocyte-1 and 81.90 pmol oocyte-1 and 130.00 pmol oocyte-1 and 94.16 pmol oocyte-1 and 115.25 pmol oocyte-1 and 26.09 pmol oocyte-1; the “water-injected PPQ uptake at 90 min” value is 141.60 pmol oocyte-1 and 108.94 pmol oocyte-1 and 115.49 pmol oocyte-1 and 110.70 pmol oocyte-1 and 135.43 pmol oocyte-1 and 121.15 pmol oocyte-1 and 104.62 pmol oocyte-1. Also, in experiment [1] (50 μM PPQ), the “water-injected PPQ uptake at 120 min” value is 303.20 pmol oocyte-1 and 211.45 pmol oocyte-1 and 192.46 pmol oocyte-1 and 188.86 pmol oocyte-1 and 88.47 pmol oocyte-1 and 177.90 pmol oocyte-1 and 230.86 pmol oocyte-1 and 32.42 pmol oocyte-1 and 62.20 pmol oocyte-1 and 374.51 pmol oocyte-1 and 406.68 pmol oocyte-1; the “water-injected PPQ uptake at 180 min” value was 179.29 pmol oocyte-1 and 189.51 pmol oocyte-1 and 135.33 pmol oocyte-1 and 198.05 pmol oocyte-1 and 192.50 pmol oocyte-1 and 163.03 pmol oocyte-1 and 220.09 pmol oocyte-1 and 265.31 pmol oocyte-1 and 192.47 pmol oocyte-1. In experiment [2] (10 µM PPQ, single replicates), the “PfCRTDd2_H97Y-mediated PPQ uptake at 10 µM PPQ” value was 12.86 pmol oocyte-1 h-1 and 5.01 pmol oocyte-1 h-1 and 5.38 pmol oocyte-1 h-1. In experiment [2] (50 µM PPQ, single replicates), the “PfCRTDd2_H97Y-mediated PPQ uptake at 50 µM PPQ” value is 31.25 pmol oocyte-1 h-1 and 73.07 pmol oocyte-1 h-1 and 57.01 pmol oocyte-1 h-1 and 61.85 pmol oocyte-1 h-1 and 37.57 pmol oocyte-1 h-1 and 17.78 pmol oocyte-1 h-1. The “PfCRTDd2_H97Y-mediated PPQ uptake at 100 µM PPQ” value in experiment [2] (100 µM PPQ, single replicates) was 97.03 pmol oocyte-1 h-1 and 61.02 pmol oocyte-1 h-1 and 41.93 pmol oocyte-1 h-1 and 45.11 pmol oocyte-1 h-1. For the same compound, the “PfCRTDd2_H97Y-mediated PPQ uptake at 300 µM PPQ” value in experiment [2] (300 µM PPQ, single replicates) is 103.79 pmol oocyte-1 h-1 and 76.95 pmol oocyte-1 h-1 and 76.45 pmol oocyte-1 h-1 and 130.46 pmol oocyte-1 h-1. For the same compound, the “PfCRTDd2_H97Y-mediated PPQ uptake at 500 µM PPQ” value in experiment [2] (500 µM PPQ, single replicates) is 133.65 pmol oocyte-1 h-1 and 96.27 pmol oocyte-1 h-1 and 74.35 pmol oocyte-1 h-1 and 131.71 pmol oocyte-1 h-1. In experiment [2], the “Vmax, maximal velocity of drug transport” value was 131 ± 6 pmol oocyte^-1 h^-1 and 183.94 pmol oocyte^-1 h^-1; the Michaelis-Menten constant (Km) was 106 ± 14 µM.
